Experimental data: patent US8642297B2, “Production of L-ribose and other rare sugars” (ZuChem, Inc., priority 2005, dated 2014)

Assays:
Recombinant MDH = molecular target: T1, Recombinant MDH (Apium graveolens, UniProt Q38707, C47S/T120I); experiment: Relative reaction rates of substrates with recombinantly expressed MDH (NADH formation measured spectrophotometrically); type: biochemical; conditions: relative to D-mannitol = 100%; MDH expressed in E. coli
T1 construct: made in house; host or cells: E. coli BL21 (pTTQ18 plasmid, tac promoter)
Method: (§1) Many different variables were studied to maximize the expression and activity of MDH. MDH activity was monitored with the conversion of D-mannitol to D-mannose in the presence of NAD. The conversion was monitored spectrophotometrically by measuring the increasing concentration of NADH, the cofactor product of the oxidation of mannitol to mannose. For a given experiment, lysate protein concentrations were normalized.
Substrate specificity of the recombinant MDH was also tested and compared with the published data on the natively expressed MDH. Recombinant expression of MDH in E. coli could cause subtle modifications to the tertiary structure of MDH and modify the substrate specificity. Several known substrates of the MDH were tested.[16]
The reaction rate of L-fucitol for recombinant MDH was tested. […] The fucitol was not originally characterized in the previous literature on MDH.[38]

[1] = molecular target: T2, Apium gravelons mannitol-1-dehydrogenase (MDH) (Apium graveolens, UniProt Q38707, C47S/T120I); experiment: MDH activity in lysate with added divalent metal salts, D-mannitol and NAD at pH 9.0; type: biochemical
T2 construct: made in house; host or cells: E. coli BL21 (pTTQ18 plasmid, tac promoter)
Method: While not explicitly described in the literature, Apium gravelons mannitol-1-dehydrogenase (MDH) requires divalent metal ions, particularly Zn^2+ ions, for activity. The presence of ZnSO4 increases MDH activity. Cells expressing MDH were grown in rich media were harvested and lysed with BUGBUSTER® protein extraction reagent, Novagen, Madison, Wis. MDH activity was then tested with increasing concentrations of ZnSO4 in the presence of D-mannitol and NAD cofactor at pH 9.0. See, FIG. 1.

Native MDH = molecular target: T3, Native MDH (Apium graveolens, UniProt Q38707); conditions: cited from earlier work; for Relative reaction rate, Native MDH: relative to D-mannitol = 100%, natively expressed MDH
T3 construct: compared with the published data on the natively expressed MDH; host or cells: celery (Apium graveolens)
T3 sequence (Q38707 1-365): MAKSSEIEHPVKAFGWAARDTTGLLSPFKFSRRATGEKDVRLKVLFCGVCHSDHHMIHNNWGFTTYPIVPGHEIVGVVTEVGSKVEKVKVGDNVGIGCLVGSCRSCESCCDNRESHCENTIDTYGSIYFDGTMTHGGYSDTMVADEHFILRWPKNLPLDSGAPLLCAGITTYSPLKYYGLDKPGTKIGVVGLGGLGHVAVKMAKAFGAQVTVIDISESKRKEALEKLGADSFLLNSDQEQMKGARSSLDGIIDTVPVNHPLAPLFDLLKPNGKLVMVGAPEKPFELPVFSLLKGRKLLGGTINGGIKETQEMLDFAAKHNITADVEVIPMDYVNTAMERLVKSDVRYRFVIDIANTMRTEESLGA

[2] = type: biochemical, Apium graveolens
Method: as §1
The pH profile for MDH for the oxidation reactions was also tested. […] This range could be beneficial for in vitro bioconversions with enzymatic NAD cofactor recycling methods. Increasing the activity of MDH at neutral pH could improve in vivo fermentation activity as the interior of the E. coli cell has a pH lower than 9.0.[21]
The recombinant MDH was tested for activity at various temperatures. Lysates containing expressed MDH were incubated with D-mannitol and NAD at pH 9.0. Activity was measured by measuring the increased NADH concentration spectrophotometrically at A340nm. […] See, FIG. 12.
The thermostability of recombinant MDH was also tested. Lysates containing MDH were incubated at various temperatures. Aliquots of MDH were removed at various times to measure MDH activity using the assay described above. See, FIG. 13.

T1 sequence (Q38707 whole entry C47S/T120I): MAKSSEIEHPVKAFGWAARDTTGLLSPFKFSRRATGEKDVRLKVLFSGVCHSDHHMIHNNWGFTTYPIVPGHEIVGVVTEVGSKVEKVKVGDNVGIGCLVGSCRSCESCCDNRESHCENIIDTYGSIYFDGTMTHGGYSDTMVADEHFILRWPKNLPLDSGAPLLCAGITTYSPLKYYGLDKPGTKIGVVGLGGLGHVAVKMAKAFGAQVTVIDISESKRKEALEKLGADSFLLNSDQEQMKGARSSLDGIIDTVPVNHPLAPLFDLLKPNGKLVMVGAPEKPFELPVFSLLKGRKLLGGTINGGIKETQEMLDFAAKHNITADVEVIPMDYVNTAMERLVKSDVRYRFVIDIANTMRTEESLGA
T2 sequence (Q38707 whole entry C47S/T120I): as above

Compound	Relative reaction rate, Recombinant MDH (Recombinant MDH)	Relative reaction rate, Native MDH (Native MDH)	also measured
C[C@H](O)[C@@H](O)[C@@H](O)[C@H](O)CO [L-fucitol]	10.5%		
O=S(=O)([O-])[O-].[Ni+2] [NiSO4]			Inhibition of MDH activity ([1]; 0.1 mM NiSO4 compared to MDH without NiSO4 added): approximately 50%
OC[C@@H](O)[C@@H](O)[C@@H](O)CO [Ribitol]	50%	36%	
OC[C@@H](O)C(O)[C@H](O)CO [D-Arabitol]	33%	37%	
OC[C@@H](O)[C@@H](O)[C@H](O)[C@H](O)CO [D-Mannitol]	100%	100%	
OC[C@@H](O)[C@@H](O)[C@H](O)[C@@H](O)CO [D-Sorbitol]	5%	22%	
OC[C@@H](O)[C@H](O)[C@@H](O)CO [Xylitol]	1%	0%	Conversion of xylitol to L-xylose by wild-type MDH (Native MDH; wild-type MDH): does not convert
MDH: NAD-dependent mannitol-1-dehydrogenase from Apium graveolens, recombinantly expressed in E. coli			Thermostability (loss of activity on incubation) [2]: Most MDH activity was lost; Residual activity at pH 7.0 ([2]; pH 7.0, relative to maximum at pH 9.0): 10%
OC[C@@H](O)[C@@H](O)CO [Erythritol]	4%	16%	
O=S(=O)([O-])[O-].[Zn+2] [Zn^2+, ZnSO4]			Increase of MDH activity ([1]; 1 μM Zn^2+ ions compared to no added zinc): 50%; Effect on MDH activity at concentrations above 1 μM ([1]; concentrations above 1 μM): inhibition
